Reference: BindingDB's records for doi:10.1016/j.bmcl.2006.01.126 (Amgen, 2006)

Assay: Inhibition of TARC-mediated CEM cell migration

| IC50 | SMILES |
| --- | --- |
| 0.53 µM | c1ccc2c(Nc3nc(CN(CC4CCCCC4)CC4CCCCC4)cs3)cccc2c1 [4-((bis(cyclohexylmethyl)amino)methyl)-N-(naphthalen-1-yl)thiazol-2-amine] |
| 6.4 µM | Cc1csc(Nc2cccc3ccccc23)n1 [4-methyl-N-(naphthalen-1-yl)thiazol-2-amine] |
